The source made the active and inactive calls. No cut-off for these calls is given here.
Legend:
[1] = system: Coxsackievirus B1; assay: Antiviral activity against Coxsackievirus B1 infected in human HeLa cells up to 100 ug/ml by agar diffusion assay; type: functional, organism-based
[2] = system: HeLa; assay: Cytotoxicity against human HeLa cells up to 100 ug/ml; type: cell-based
[3] = system: Enterococcus faecalis; assay: Antibacterial activity against Streptococcus faecalis I up to 200 ug/ml; type: functional, organism-based
[4] = Cytotoxicity against BHK cells up to 100 ug/ml by carbol fuschin assay; type: cell-based, Mesocricetus auratus; settings: hamster
[5] = system: Bacillus subtilis; assay: Antibacterial activity against Bacillus subtilis up to 200 ug/ml; type: functional, organism-based
[6] = system: Human alphaherpesvirus 1; assay: Antiviral activity against Herpes simplex virus 1 infected in chick embryo fibroblasts by plaque reduction assay; type: functional, organism-based
[7] = system: Influenza A virus; assay: Antiviral activity against influenza A virus NWS/H0N1 infected in BHK cells up to 100 ug/ml by agar diffusion assay; type: functional, organism-based
[8] = system: Staphylococcus aureus; assay: Antibacterial activity against Staphylococcus aureus 1517 up to 200 ug/ml; type: functional, organism-based
[9] = system: Streptococcus pyogenes; assay: Antibacterial activity against Streptococcus pyogenes CN10 up to 200 ug/ml; type: functional, organism-based
[10] = system: Staphylococcus aureus; assay: Antibacterial activity against Staphylococcus aureus Russel up to 200 ug/ml; type: functional, organism-based
[11] = system: Staphylococcus aureus; assay: Antibacterial activity against Staphylococcus aureus Oxford up to 200 ug/ml; type: functional, organism-based

Structure (SMILES) | Activity [1] | Activity [2] | Activity [3] | Activity [4] | Activity [5] | Activity [6] | Activity [7] | Activity [8] | Activity [9] | Activity [10] | Activity [11]
CNC1=NC(=O)[C@@H]([C@@H](C)c2c[nH]c3ccccc23)S1 | inactive | Non-toxic | inactive | Non-toxic | inactive | inactive | inactive | inactive | inactive | inactive | inactive
CNC1=NC(=O)[C@H]([C@H](C)c2c[nH]c3ccccc23)S1 | – | – | – | – | – | inactive | – | – | – | – | –
CN(C)C1=NC(=O)C(Cc2c[nH]c3ccccc23)S1 (racemic) | inactive | Non-toxic | inactive | Non-toxic | inactive | inactive | inactive | inactive | inactive | inactive | inactive
CCNC1=NC(=O)C(Cc2c[nH]c3ccccc23)S1 (racemic) | inactive | Non-toxic | inactive | Non-toxic | inactive | inactive | inactive | inactive | inactive | inactive | inactive
O=C1N=C(NCCO)SC1Cc1c[nH]c2ccccc12 (racemic) | inactive | Non-toxic | inactive | Non-toxic | inactive | inactive | inactive | inactive | inactive | inactive | inactive
O=C1N=C(NCc2ccccc2)SC1Cc1c[nH]c2ccccc12 (racemic) | inactive | Non-toxic | inactive | Non-toxic | inactive | inactive | inactive | inactive | inactive | inactive | inactive
CNC1=NC(=O)C(Cc2cn(C)c3ccccc23)S1 (racemic) | inactive | Non-toxic | inactive | Non-toxic | inactive | inactive | inactive | inactive | inactive | inactive | inactive
CN1C(=N)SC(Cc2c[nH]c3ccccc23)C1=O (racemic) | inactive | Non-toxic | inactive | Non-toxic | inactive | inactive | inactive | inactive | inactive | inactive | inactive
C/N=C1/SC(Cc2c[nH]c3ccccc23)C(=O)N1C (racemic) | inactive | Non-toxic | inactive | Non-toxic | inactive | inactive | inactive | inactive | inactive | inactive | inactive
CCN1C(=N)SC(Cc2c[nH]c3ccccc23)C1=O (racemic) | inactive | Non-toxic | inactive | Non-toxic | inactive | inactive | inactive | inactive | inactive | inactive | inactive
CNC1=NC(=O)[C@H]([C@H](C)c2c[nH]c3ccccc23)S1 (racemic) | – | – | – | – | – | inactive | – | – | – | – | –
